Test results taken from patent EP1285920A1, “C10 Ester sustituted taxanes as antitumor agents” (Florida State University Research Foundation, Inc., priority 2001, dated 2003).

Tested on: blood cell populations
Assay: Effect of oral treatment on blood cell populations and body weight in the MX-1 study (Example 22)
Assay type: in vivo, nu/nu mice
Conditions: mg/kg: 0499 80, 0550 73, 0611 113, 0748 200
Description: Antitumor compounds were administered orally in a study to investigate whether such a formulation is efficacious against the MX-1 human breast carcinoma xenograft. Antitumor compound 0499 was formulated as Solution 1 in Example 6. Antitumor compound 0550 was formulated as Solution 2 in Example 6. Antitumor compound 0611 was formulated as Solution 3 in Example 6. Antitumor compound 0748 was formulated as Solution 4 in Example 6. Other antitumor compounds were formulated similarly. The compounds were prepared in a vehicle of 90% saline, 5% Cremophor, and 5% ethanol.
Female nu/nu mice (11-12 weeks of age; implanted subcutaneously with 1 mm^3 MX-1 human breast carcinoma fragments in the flank) were sorted into one control group (n=10) and four treatment (n=6) groups (group mean tumor size of 47-49 mg). The study was terminated on Day 63.
In addition to survival and tumor regression responses, the effect of treatment on blood cell populations was assessed. The major effect of these antitumor compounds on blood cell populations was a marked reduction in the neutrophil cell number. As well, monocyte depletion correlated fairly well with neutrophil reduction for each antitumor compound. […] There was a correlation between antitumor activity and reduced neutrophil count. In general, toxicity (as determined by neutrophil depletion) and weight loss correlated with efficacy. […] Importantly, the toxicities observed with the very efficacious antitumor compounds were manageable and reversible; neutrophil count and body weight rebounded from their low points in just a few days. Table 20 summarizes the weight reduction, neutrophil and monocyte measurements on Day 4, with tumor weight reduction calculated at Day 18: Table 20

[1] = Day 4, vs vehicle, single oral bolus

## CCC(=O)O[C@H]1C(=O)[C@@]2(C)[C@H]([C@H](OC(=O)c3ccccc3)[C@]3(O)C[C@H](OC(=O)[C@H](O)[C@H](C=C(C)C)NC(=O)OC(C)(C)C)C(C)=C1C3(C)C)[C@]1(OC(C)=O)CO[C@@H]1C[C@@H]2O [Compound 0499]
[1]
  % Reduction (Monocytes): 24.0%
  % Reduction (Neutrophils): 91.6%
Day 4, single oral bolus Day 1
  Monocytes (K/µL): 0.073 K/µL
  Neutrophils (K/µL): 0.077 K/µL
Body weight, day of maximum in parentheses in the cell, single oral bolus Day 1
  Maximum Weight Loss (Day): -11.4% (7)
